The subject of data set [1] is various microbes. In words: MIC tests overall, comparison versus Piroctone Olamine. The data set is classed as cell-based. The method, then:
(§1) A compound according to Formula (2), namely 1-hydroxy-4-methyl-6-(2,4,4-trimethyl pentyl)-2(1H)-pyridone (named as Piroctone in the below table), is tested for efficacy versus various microbes. Comparison is made versus Piroctone Olamine (=Octopirox®).

Data set [2] can be described thus: Solubility testing in various solvents. To be noted: for Solubility: directly after addition and after standing for a week. The format is physicochemical. The protocol: A compound according to Formula (2), namely 1-hydroxy-4-methyl-6-(2,4,4-trimethylpentyl)-2(1H)-pyridone, is tested for solubility in various solvents. A 10% (w/w) solution of this compound is tested. The solubility is tested directly after addition as well as after being left to stand for a week.

Data set [3] has as its system Malassezia globosa ATCC 4889. In words: MIC test, efficacy versus microbes. The format is cell-based. To be noted: ATCC4889, pH 6.5, Octopirox tested as 5%, Piroctone as 3.98% in butylpolyglycol, read-out: MIC in ppm pH 6.5 (Malassezia Agar). The protocol:
as §1

The test system of data set [4] is Saccharomyces cerevisiae DSM 70449. The data set can be described thus: MIC test, efficacy versus microbes. The data set is classed as cell-based. The settings on record: DSM70449, pH 6.5, Octopirox tested as 5%, Piroctone as 3.98% in butylpolyglycol, read-out: MIC in ppm pH 6.5 (Malassezia Agar). The protocol: as §1
Data set [5] relates to Candida albicans DSM 1386. In words: MIC test, efficacy versus microbes. To be noted: DSM1386, pH 6.5, Octopirox tested as 5%, Piroctone as 3.98% in butylpolyglycol, read-out: MIC in ppm pH 6.5 (Malassezia Agar). The data set is classed as cell-based. The protocol:
as §1

Data set [6] concerns Malassezia furfur DSM 6170. The data set can be described thus: MIC test, efficacy versus microbes. The format is cell-based. To be noted: DSM6170, pH 6.5, Octopirox tested as 5%, Piroctone as 3.98% in butylpolyglycol, read-out: MIC in ppm pH 6.5 (Malassezia Agar). The protocol: as §1
The subject of data set [7] is Malassezia pachydermatis DSM 6172. In words: MIC test, efficacy versus microbes. The format is cell-based. To be noted: DSM6172, pH 6.5, Octopirox tested as 5%, Piroctone as 3.98% in butylpolyglycol, read-out: MIC in ppm pH 6.5 (Malassezia Agar). The protocol: as §1

Counter-ions that a name gives are not always drawn.

On to `Cc1cc(CC(C)CC(C)(C)C)n(O)c(=O)c1` (stereo not shown) [Piroctone, 1-hydroxy-4-methyl-6-(2,4,4-trimethylpentyl)-2(1H)-pyridone], for which the “Mass efficacy better than Piroctone Olamine” value in data set [1] (antimicrobial efficacy per mass) is recorded as “around 20%”. The “Activity in MIC tests compared with Piroctone Olamine” value in data set [1] (conclusion from Experiment 2) was “same activity in MIC tests at a lower concentration than Piroctone Olamine”. The “Comments (solubility observation)” value is on record as “Not soluble” in data set [2] (10% (w/w) in 1,3-Dioxolane); “Not soluble” in data set [2] (10% (w/w) in 2-Methyltetrahydrofuran); “Not completely soluble, supernatant” in data set [2] (10% (w/w) in 3-Pentanone); “Dissolves to a large extend” in data set [2] (10% (w/w) in Acetone (purity >99%)); “Dissolves slowly leading to a clear” in data set [2] (10% (w/w) in Ethanol); “Not completely dissolved,” in data set [2] (10% (w/w) in Isopropanol). Besides, in data set [2] (10% (w/w) in Methanol), the “Comments (solubility observation)” value is on record as “Soluble. Resulting soltuion is clear”. For the same molecule, the Solubility entry is “no” in data set [2] (10% (w/w) solution in 1,3-Dioxolane); “no” in data set [2] (10% (w/w) solution in 2-Methyltetrahydrofuran); “no” in data set [2] (10% (w/w) solution in 3-Pentanone); “no” in data set [2] (10% (w/w) solution in Acetone (purity >99%)); “excellently and yes” in data set [2] (10% (w/w) solution in Ethanol); “no” in data set [2] (10% (w/w) solution in Isopropanol). Further, the Solubility result is “excellently and yes” in data set [2] (10% (w/w) solution in Methanol); “no” in data set [2] (10% (w/w) solution in tert. Butanol (2.5% H2O)).
By MIC is commonly meant the smallest concentration in the dilution series that meets the test's criterion for growth inhibition. Turning to `Cc1cc(CC(C)CC(C)(C)C)n(O)c(=O)c1` (stereo not shown) [Octopirox, monoethanolamine salt of 1-hydroxy-4-methyl-6-(2,4,4-trimethylpentyl)-2(1H)-pyridone], the MIC in data set [3], in data set [4], in data set [5], in data set [6] and in data set [7] was 500 µg/mL throughout.

For the origin of these results see patent publication US11753379B2, “Process for forming 2-hydroxypyridine-1-oxide or derivatives thereof” (Clariant International Ltd., priority 2018, dated 2023).
